These results are taken from PubChem BioAssay AID1259407 (Chemical Carcinogenesis Research Information System (CCRIS), 2018).

The test system of this series is CCRIS mutagenicity, Ames/micronucleus/aberration tests. Briefly: CCRIS mutagenicity studies.
[1] abbreviates: Test System: AMES SALMONELLA TYPHIMURIUM, Strain/Indicator: TA98, Metabolic Activation: HAMSTER, LIVER, S-9, AROCLOR 1254 (30%), Method: PREINCUBATION
Where [2] appears, read: Test System: AMES SALMONELLA TYPHIMURIUM, Strain/Indicator: TA98, Metabolic Activation: NONE, Method: PREINCUBATION
[3] abbreviates: Test System: AMES SALMONELLA TYPHIMURIUM, Strain/Indicator: TA98, Metabolic Activation: RAT, LIVER, S-9, AROCLOR 1254 (30%), Method: PREINCUBATION
Where [4] appears, read: Test System: AMES SALMONELLA TYPHIMURIUM, Strain/Indicator: TA100, Metabolic Activation: HAMSTER, LIVER, S-9, AROCLOR 1254 (30%), Method: PREINCUBATION
[5] abbreviates: Test System: AMES SALMONELLA TYPHIMURIUM, Strain/Indicator: TA100, Metabolic Activation: NONE, Method: PREINCUBATION
Where [6] appears, read: Test System: AMES SALMONELLA TYPHIMURIUM, Strain/Indicator: TA100, Metabolic Activation: NONE, Method: STANDARD PLATE.
[7] abbreviates: Test System: AMES SALMONELLA TYPHIMURIUM, Strain/Indicator: TA100, Metabolic Activation: RAT, LIVER, S-9, AROCLOR 1254, Method: STANDARD PLATE.

Active and inactive are the calls of the source. How the calls were made is not given here.

Take `Nc1ccc(F)cc1F`: the mutagenic call reads like this: (Test System: AMES SALMONELLA TYPHIMURIUM, Strain/Indicator: TA97, Metabolic Activation: HAMSTER, LIVER, S-9, AROCLOR 1254 (10%), Method: PREINCUBATION) “inactive; negative”; (Test System: AMES SALMONELLA TYPHIMURIUM, Strain/Indicator: TA97, Metabolic Activation: HAMSTER, LIVER, S-9, AROCLOR 1254 (30%), Method: PREINCUBATION) “inactive; negative”; (Test System: AMES SALMONELLA TYPHIMURIUM, Strain/Indicator: TA97, Metabolic Activation: NONE, Method: PREINCUBATION) “inactive; negative”; (Test System: AMES SALMONELLA TYPHIMURIUM, Strain/Indicator: TA97, Metabolic Activation: RAT, LIVER, S-9, AROCLOR 1254 (10%), Method: PREINCUBATION) “inactive; negative”; (Test System: AMES SALMONELLA TYPHIMURIUM, Strain/Indicator: TA97, Metabolic Activation: RAT, LIVER, S-9, AROCLOR 1254 (30%), Method: PREINCUBATION) “inactive; negative”; (Test System: AMES SALMONELLA TYPHIMURIUM, Strain/Indicator: TA98, Metabolic Activation: HAMSTER, LIVER, S-9, AROCLOR 1254 (10%), Method: PREINCUBATION) “inactive; negative”. Further, the mutagenic call runs as follows: under setting [1], “active; positive”; under setting [2], “inactive; negative”; (Test System: AMES SALMONELLA TYPHIMURIUM, Strain/Indicator: TA98, Metabolic Activation: RAT, LIVER, S-9, AROCLOR 1254 (10%), Method: PREINCUBATION) “inactive; negative”; under setting [3], “inactive; negative”; (Test System: AMES SALMONELLA TYPHIMURIUM, Strain/Indicator: TA100, Metabolic Activation: HAMSTER, LIVER, S-9, AROCLOR 1254 (5 OR 10%), Method: PREINCUBATION) “inactive; negative”; under setting [4], “active; positive”. For the same compound, the mutagenic call reads like this: under setting [5], “inactive; negative”; (Test System: AMES SALMONELLA TYPHIMURIUM, Strain/Indicator: TA100, Metabolic Activation: RAT, LIVER, S-9, AROCLOR 1254 (5, 10 OR 30%), Method: PREINCUBATION) “inactive; negative”; (Test System: AMES SALMONELLA TYPHIMURIUM, Strain/Indicator: TA1535, Metabolic Activation: HAMSTER, LIVER, S-9, AROCLOR 1254 (10%), Method: PREINCUBATION) “inactive; negative”; (Test System: AMES SALMONELLA TYPHIMURIUM, Strain/Indicator: TA1535, Metabolic Activation: HAMSTER, LIVER, S-9, AROCLOR 1254 (30%), Method: PREINCUBATION) “inactive; negative”; (Test System: AMES SALMONELLA TYPHIMURIUM, Strain/Indicator: TA1535, Metabolic Activation: NONE, Method: PREINCUBATION) “inactive; negative”; (Test System: AMES SALMONELLA TYPHIMURIUM, Strain/Indicator: TA1535, Metabolic Activation: RAT, LIVER, S-9, AROCLOR 1254 (10%), Method: PREINCUBATION) “inactive; negative”. Besides, the mutagenic call (Test System: AMES SALMONELLA TYPHIMURIUM, Strain/Indicator: TA1535, Metabolic Activation: RAT, LIVER, S-9, AROCLOR 1254 (30%), Method: PREINCUBATION) was “inactive; negative”.
Turning to `CC(C)c1cc(-c2ccccc2)ccc1N`, the mutagenic call by setting is: (Test System: AMES SALMONELLA TYPHIMURIUM, Strain/Indicator: TA98, Metabolic Activation: NONE, Method: STANDARD PLATE) “inactive; negative”; (Test System: AMES SALMONELLA TYPHIMURIUM, Strain/Indicator: TA98, Metabolic Activation: RAT LIVER S-9, AROCLOR, Method: STANDARD PLATE) “active; positive”; under setting [6], “inactive; negative”; (Test System: AMES SALMONELLA TYPHIMURIUM, Strain/Indicator: TA100, Metabolic Activation: RAT LIVER S-9, AROCLOR, Method: STANDARD PLATE) “active; positive”.
Regarding `C1=Cc2c(ccc3ccc4ccccc4c23)C1`, under setting [7], the mutagenic call was “active; positive”.
For `Cc1cccc2c3c(c4cc5ccccc5cc4c12)N3`, the mutagenic call under setting [2] is “active; positive”.
As to `C[C@]12CC[C@@H]3c4ccc(O)c(O)c4CC[C@H]3[C@@H]1CC[C@@H]2O`, the mutagenic call (Test System: Ames Salmonella Typhimurium, Strain/Indicator: TA98, Metabolic Activation: None, Method: Standard plate) was “inactive; negative”; the mutagenic call (Test System: Ames Salmonella Typhimurium, Strain/Indicator: TA98, Metabolic Activation: Rat, liver, S-9 (0.5 ml), Method: Standard plate) is “inactive; negative”; the mutagenic call (Test System: Ames Salmonella Typhimurium, Strain/Indicator: TA100, Metabolic Activation: None, Method: Standard plate) is “inactive; negative”; the mutagenic call (Test System: Ames Salmonella typhimurium, Strain/Indicator: TA100, Metabolic Activation: Rat, liver, S-9, Method: Standard plate) is “inactive; negative”.
As for `COP(=O)(OC)OC`, the mutagenic call runs as follows: under setting [1], “inactive; negative”; under setting [2], “inactive; negative”; under setting [3], “inactive; negative”; under setting [4], “active; positive”; under setting [5], “inactive; negative”; (Test System: AMES SALMONELLA TYPHIMURIUM, Strain/Indicator: TA100, Metabolic Activation: RAT, LIVER, S-9, AROCLOR 1254 (30%), Method: PREINCUBATION) “active; positive”. The mutagenic call reads like this: (Test System: AMES SALMONELLA TYPHIMURIUM, Strain/Indicator: TA102, Metabolic Activation: NONE, Method: STANDARD PLATE) “inactive; negative”; (Test System: AMES SALMONELLA TYPHIMURIUM, Strain/Indicator: TA2638, Metabolic Activation: NONE, Method: STANDARD PLATE) “active; positive”; (Test System: E. COLI, Strain/Indicator: WP2 (PKM101), Metabolic Activation: NONE, Method: STANDARD PLATE) “active; positive”; (Test System: E. COLI, Strain/Indicator: WP2 UVRA (PKM101), Metabolic Activation: NONE, Method: STANDARD PLATE) “active; positive”.
For the compound `Cc1ccc2c(c1)c(C)c1c3ccccc3nc-1n2C`, the mutagenic call is, setting by setting: (Test System: AMES SALMONELLA TYPHIMURIUM, Strain/Indicator: TA97, Metabolic Activation: RAT, LIVER, S-9, AROCLOR 1254, Method: STANDARD PLATE) “active; positive”; (Test System: AMES SALMONELLA TYPHIMURIUM, Strain/Indicator: TA98, Metabolic Activation: RAT, LIVER, S-9, AROCLOR 1254, Method: STANDARD PLATE) “active; positive”; (Test System: AMES SALMONELLA TYPHIMURIUM, Strain/Indicator: TA102, Metabolic Activation: RAT, LIVER, S-9, AROCLOR 1254, Method: STANDARD PLATE) “active; positive”.
Regarding `O=C(O)C1OC1C(=O)O` (configuration not stated), the mutagenic call was “inactive; negative” under setting [6]; “inactive; negative” under setting [7]; “inactive; negative” (Test System: AMES SALMONELLA TYPHIMURIUM, Strain/Indicator: TA1535, Metabolic Activation: NONE, Method: STANDARD PLATE); “inactive; negative” (Test System: AMES SALMONELLA TYPHIMURIUM, Strain/Indicator: TA1535, Metabolic Activation: RAT, LIVER, S-9, AROCLOR 1254, Method: STANDARD PLATE); “inactive; negative” (Test System: UDS RAT HEPATOCYTES, Strain/Indicator: THY INCORP, Metabolic Activation: NONE).
